Laboratory results reported in ChEMBL document CHEMBL1138923, “Structure-activity relationships of 1,5-biaryl pyrroles as EP1 receptor antagonists” (Bioorg Med Chem Lett, 2006).

Experiments:
[1] = molecular target: T1, Prostaglandin E2 receptor EP1 subtype (Homo sapiens, UniProt P34995); experiment: Inhibition of [3H]PGE2 binding to EP1 receptor expressed in CHO cells; type: cell-based
T1 sequence (P34995 whole entry): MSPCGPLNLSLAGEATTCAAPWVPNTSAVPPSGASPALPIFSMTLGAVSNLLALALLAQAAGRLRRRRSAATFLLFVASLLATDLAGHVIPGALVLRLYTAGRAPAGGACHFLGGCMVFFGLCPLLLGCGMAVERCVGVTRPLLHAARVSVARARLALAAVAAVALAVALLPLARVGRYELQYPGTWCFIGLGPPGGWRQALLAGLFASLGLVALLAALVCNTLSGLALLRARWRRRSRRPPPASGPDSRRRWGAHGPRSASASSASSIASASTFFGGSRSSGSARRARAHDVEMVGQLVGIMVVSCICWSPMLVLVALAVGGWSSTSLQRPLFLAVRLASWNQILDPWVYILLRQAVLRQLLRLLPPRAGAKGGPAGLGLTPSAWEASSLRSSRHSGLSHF

[2] = Clearance in rat at 1 mg/kg, iv; type: ADME, organism-based; set-up: dose 1 mg/kg, route intravenous; settings: in vivo
[3] = Volume of distribution in rat at 1 mg/kg, iv; type: ADME, organism-based; set-up: dose 1 mg/kg, route intravenous; settings: in vivo, read-out: Vss
Rattus norvegicus = organism: Rattus norvegicus; experiment: Decrease in weight bearing of left hind paw in rat FCA model of inflammatory pain 1 hr post dose; type: functional
Cytochrome P450 (family) = Cytochrome P450 (family) (Homo sapiens, UniProt P04798+P05177+P05181+P08684+P10632+P10635+P11509+P11712+P13584+P20813+P20815+P20853+P24462+P24903+P33260+P33261+P51589+P78329+P98187+Q02928+Q08477+Q16678+Q16696+Q5TCH4+Q6VVX0+Q7Z449+Q8TAV3+Q96SQ9+Q9HB55); experiment: Inhibition of CYP450; type: ADME
[4] = Oral bioavailability in rat at 3 mg/kg, po; type: ADME, organism-based; settings: in vivo
Cytochrome P450 2C9 = Cytochrome P450 2C9 (Homo sapiens, UniProt P11712); experiment: Inhibition of CYP450 2C9; type: ADME
[5] = Half life in rat at 1 mg/kg, iv; type: ADME, organism-based; set-up: dose 1 mg/kg, route intravenous; settings: in vivo

Chain of Cytochrome P450 2C9 (P11712 whole entry): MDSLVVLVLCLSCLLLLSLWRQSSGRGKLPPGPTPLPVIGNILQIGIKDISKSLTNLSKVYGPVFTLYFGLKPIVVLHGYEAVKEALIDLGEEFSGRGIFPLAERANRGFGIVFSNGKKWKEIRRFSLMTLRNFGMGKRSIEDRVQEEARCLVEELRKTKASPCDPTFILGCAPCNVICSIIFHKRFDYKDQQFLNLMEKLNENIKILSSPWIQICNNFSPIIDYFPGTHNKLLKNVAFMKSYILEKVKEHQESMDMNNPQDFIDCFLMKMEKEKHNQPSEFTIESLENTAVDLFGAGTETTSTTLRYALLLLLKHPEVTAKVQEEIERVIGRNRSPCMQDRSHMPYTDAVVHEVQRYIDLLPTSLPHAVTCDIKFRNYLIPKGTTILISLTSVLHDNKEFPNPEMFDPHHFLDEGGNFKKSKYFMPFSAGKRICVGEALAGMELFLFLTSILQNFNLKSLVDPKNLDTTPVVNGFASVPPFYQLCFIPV

Row | Compound | IC50 [1] | other results
1 | Cc1ccc(-c2cc(S(C)(=O)=O)ccc2OCc2ccccc2)n1-c1cccc(C(=O)O)c1 | 25.1 nM | 
2 | Cc1ccc(-c2cc(Br)ccc2OCc2cccc(OC(F)F)c2)n1-c1cccc(C(=O)O)c1 | 79.4 nM | 
3 | Cc1ccc(-c2cc(Br)ccc2OCc2ccc(F)cc2)n1-c1cccc(C(=O)O)c1 | 6.31 nM | clearance [2]: 42 mL/min/kg; Vd [3]: 0.7 L/kg; ED50 (Rattus norvegicus): 9.2 mg/kg; IC50 (Cytochrome P450 (family)): ≥ 17000 nM; bioavailability [4]: 44%; IC50 (Cytochrome P450 2C9): 3900 nM
4 | Cc1ccc(-c2cc(Br)ccc2OCc2c(F)cccc2Cl)n1-c1cccc(C(=O)O)c1 | 12.6 nM | 
5 | Cc1ccc(-c2cc(Br)ccc2OCc2cccc(Cl)c2)n1-c1cccc(C(=O)O)c1 | 10 nM | 
6 | Cc1ccc(-c2cc(Br)ccc2OCc2ccc(OC(F)(F)F)cc2)n1-c1cccc(C(=O)O)c1 | 15.8 nM | 
7 | Cc1ccc(COc2ccc(Br)cc2-c2ccc(C)n2-c2cccc(C(=O)O)c2)cc1 | 2.51 nM | 
8 | Cc1ccc(-c2cc(C(F)(F)F)ccc2OCc2ccccc2)n1-c1cccc(C(=O)O)c1 | 5.01 nM | 
9 | Cc1ccc(-c2cc(Br)ccc2OCc2ccc(F)cc2Cl)n1-c1cccc(C(=O)O)c1 | 15.8 nM | clearance [2]: 48 mL/min/kg; half-life [5]: 18 min; Vd [3]: 0.8 L/kg
10 | Cc1noc(C)c1COc1ccc(Br)cc1-c1ccc(C)n1-c1cccc(C(=O)O)c1 | 200 nM | 
11 | Cc1ccc(-c2cc(Br)ccc2OCc2ccc(C(F)(F)F)cc2)n1-c1cccc(C(=O)O)c1 | 39.8 nM | 
12 | Cc1ccc(-c2cc(Br)ccc2OCc2cc(F)ccc2F)n1-c1cccc(C(=O)O)c1 | 7.94 nM | 
13 | Cc1ccc(-c2cc(Br)ccc2OCC2CCCC2)n1-c1cccc(C(=O)O)c1 | 15.8 nM | 
14 | Cc1ccc(-c2cc(Cl)ccc2OCC2CCCO2)n1-c1cccc(C(=O)O)c1 (configuration not stated) | 39.8 nM | 
15 | Cc1ccc(-c2cc(Br)ccc2OCc2c(F)cc(F)cc2F)n1-c1cccc(C(=O)O)c1 | 1.58 nM | 
16 | Cc1ccc(-c2cc(Br)ccc2OCc2ccccc2F)n1-c1cccc(C(=O)O)c1 | 3.16 nM | 
17 | Cc1cc(COc2ccc(Br)cc2-c2ccc(C)n2-c2cccc(C(=O)O)c2)no1 | 25.1 nM | 
18 | Cc1ccc(-c2ccccc2OCc2ccccc2)n1-c1cccc(C(=O)O)c1 | 20 nM | 
19 | Cc1ccc(-c2cc(Br)ccc2OCc2ccc(Cl)c(Cl)c2)n1-c1cccc(C(=O)O)c1 | 100 nM | 
20 | O=C(O)c1cccc(-n2c(Cl)ccc2-c2cc(Cl)ccc2OCc2ccccc2)c1 | 25.1 nM | 
21 | Cc1ccc(-c2cc(Cl)ccc2OCc2ccc(F)cc2)n1-c1cccc(C(=O)O)c1 | 6.31 nM | clearance [2]: 48 mL/min/kg; Vd [3]: 0.9 L/kg
22 | CCc1ccc(-c2cc(Cl)ccc2OCc2ccccc2)n1-c1cccc(C(=O)O)c1 | 100 nM | 
23 | Cc1ccc(-c2cc(Br)ccc2OCC2CCCCC2)n1-c1cccc(C(=O)O)c1 | 39.8 nM | 
24 | COc1ccc(COc2ccc(Br)cc2-c2ccc(C)n2-c2cccc(C(=O)O)c2)cc1 | 50.1 nM | 
25 | Cc1ccc(-c2cc(Br)ccc2OCc2ccc(Cl)cc2)n1-c1cccc(C(=O)O)c1 | 10 nM | clearance [2]: 51 mL/min/kg; half-life [5]: 12 min; Vd [3]: 0.8 L/kg

Row | Compound | IC50 [1] | other results
26 | Cc1ccc(-c2cc(Cl)ccc2OCc2ccc(F)cc2F)n1-c1cccc(C(=O)O)c1 | 3.98 nM | clearance [2]: 62 mL/min/kg; Vd [3]: 0.9 L/kg
27 | Cc1ccc(-c2cc(Br)ccc2OCc2c(F)cccc2F)n1-c1cccc(C(=O)O)c1 | 1 nM | 
28 | Cc1ccc(-c2cc(Br)ccc2OCc2cccc(C(F)(F)F)c2)n1-c1cccc(C(=O)O)c1 | 251 nM | 
29 | COc1cccc(COc2ccc(Br)cc2-c2ccc(C)n2-c2cccc(C(=O)O)c2)c1 | 50.1 nM | 
30 | Cc1ccc(-c2cc(-c3ccsc3)ccc2OCc2ccccc2)n1-c1cccc(C(=O)O)c1 | 631 nM | 
31 | O=C(O)c1cccc(-n2c(-c3cc(Cl)ccc3OCc3ccc(F)cc3)ccc2C(F)(F)F)c1 | 200 nM | 
32 | Cc1ccc(-c2cc(-c3ccccc3)ccc2OCc2ccccc2)n1-c1cccc(C(=O)O)c1 | 398 nM | 
33 | Cc1c(-c2ccccc2)cc(-c2cc(Cl)ccc2OCc2ccccc2)n1-c1cccc(C(=O)O)c1 | > 1000 nM | 
34 | Cc1ccc(-c2cc(Cl)ccc2OCC2CCCCC2)n1-c1cccc(C(=O)O)c1 | 126 nM | clearance [2]: 28 mL/min/kg; half-life [5]: 24 min; Vd [3]: 0.5 L/kg
35 | Cc1c(Cl)cc(-c2cc(Cl)ccc2OCc2ccccc2)n1-c1cccc(C(=O)O)c1 | > 1000 nM | 
36 | Cc1ccc(-c2cc(Br)ccc2OCc2ccc(F)c(F)c2)n1-c1cccc(C(=O)O)c1 | 5.01 nM | 
37 | Cc1ccc(-c2cc(Br)ccc2OCc2ccc(Cl)cc2Cl)n1-c1cccc(C(=O)O)c1 | 5.01 nM | 
38 | Cc1ccccc1COc1ccc(Br)cc1-c1ccc(C)n1-c1cccc(C(=O)O)c1 | 20 nM | 
39 | Cc1ccc(-c2cc(Cl)ccc2OCC2CCOCC2)n1-c1cccc(C(=O)O)c1 | 39.8 nM | 
40 | Cc1ccc(-c2cc(Cl)ccc2OCC2CCCC2)n1-c1cccc(C(=O)O)c1 | 25.1 nM | 
41 | Cc1ccc(-c2cc(Cl)ccc2OCC(C)C)n1-c1cccc(C(=O)O)c1 | 5.01 nM | 
42 | Cc1c(Br)cc(-c2cc(Cl)ccc2OCc2ccccc2)n1-c1cccc(C(=O)O)c1 | 794 nM | clearance [2]: 54 mL/min/kg; half-life [5]: 18 min; Vd [3]: 1 L/kg
43 | Cc1ccc(-c2cc(Br)ccc2OCc2cccc(F)c2F)n1-c1cccc(C(=O)O)c1 | 6.31 nM | 
44 | Cc1ccc(-c2cc(C(F)(F)F)ccc2OCC2CCCCC2)n1-c1cccc(C(=O)O)c1 | 31.6 nM | 
45 | O=C(O)c1cccc(-n2c(-c3cc(Cl)ccc3OCc3ccc(F)cc3F)ccc2C(F)(F)F)c1 | 100 nM | 
46 | Cc1ccc(-c2cc(Br)ccc2OCc2c(F)cccc2C(F)(F)F)n1-c1cccc(C(=O)O)c1 | 100 nM | 
47 | CCc1ccc(-c2cc(Br)ccc2OCc2ccccc2)n1-c1cccc(C(=O)O)c1 | 79.4 nM | 
48 | Cc1ccc(-c2cc(Br)ccc2OCc2ccc(C(F)(F)F)cc2F)n1-c1cccc(C(=O)O)c1 | 12.6 nM | 
49 | Cc1ccc(-c2cc(Br)ccc2OCc2ccccc2Cl)n1-c1cccc(C(=O)O)c1 | 12.6 nM | 
50 | Cc1ccc(-c2cc(Br)ccc2OCC(C)C)n1-c1cccc(C(=O)O)c1 | 5.01 nM | 
